Laboratory results published in PMC7321149 (Molecules, 2020).
Read-outs that look alike come from different tables or passages of the source.

Tests used:
L. amazonensis = assay: Leishmania high content assay, intracellular amastigotes in PMA-differentiated THP-1 macrophages; assay type: cell-based, Leishmania amazonensis (MHOM/BR/1977/LTB0016); conditions: for EC50: Leishmania amazonensis
Procedure: (§1) THP-1 cells were plated onto 384-well assay plates (7000 cells/well, 25 μL) in RPMI complete media containing 50 ng/mL phorbol 12-myristate 13-acetate (PMA) and incubated at 37 °C/5% CO2 for 48 h. Cells were then infected with stationary-phase promastigotes at a multiplicity of infection (MOI) of 50 by adding 25 μL RPMI (without PMA reagent), containing 1.4 × 10^7 parasites/mL. After 24 h of incubation at 37 °C (34 °C for cutaneous species), negative control-vehicle (0.5% DMSO), the positive control (10 μM amphotericin B), and compounds were added to the plate at a volume of 10 μL/well, bringing the total volume to 60 μL/well. For the primary screenings, compounds from the LOPAC library were tested at a concentration of 50 µM. […] Assay plates were incubated at 37 °C or 34 °C/5% CO2. After 96 h of compound exposure, assay plates were fixed with paraformaldehyde (PFA) by adding 30 μL of 12% PFA in PBS, pH 7.4, followed by incubation for 15 min at room temperature. Plates were then washed three times with 50 μL of PBS, pH 7.4, and stained with 10 μL/well of 5 μM Draq5 in PBS, pH 7.4, for at least two hours before imaging.
(§2) Plates were imaged in Operetta High Content Imaging System (Perkin Elmer), version 3.1, at a 20× magnification and filters optimized for far-red fluorescence (fluorescence filter: […]). A total of four images were acquired per well, which corresponded to 600–800 cells analyzed per condition. Quantitative readouts of the infection (total THP-1 cell number, total number of infected THP-1 cells, and number of parasites (spots) per infected cell) were determined by custom analysis building blocks in Columbus image analysis software (Perkin Elmer). Briefly, host nuclei and cells were segmented based on DNA staining, followed by the detection of individual parasites also based on DNA staining. Infected cells were determined as cells with one or more spots in the cytoplasmatic area. Details of the analysis workflow are described in the (Supplementary Information (Figure S4 and Table S1).
(§3) HCS data were analyzed as previously described^29. Briefly, the ratio of infected cells to the total number of cells was determined as the infection ratio (IR). The raw data for IR values was normalized to the negative (DMSO-treated infected cells) and positive (non-infected cells) controls to determine the normalized antiparasitic activity, expressed as a percentage in comparison to control wells. The cellular ratio was determined as the proportion between the host cell number in compound-treated wells and the mean cell number in infected control wells. Plates were submitted to quality control analysis using the Z’-factor^53 and only plates with Z’-factor > 0.5 were considered for further analysis. Groups of different samples were analyzed using the ANOVA test followed by Tukey’s multiple comparison test. Studies of correlation were performed using Pearson or Spearman tests. […] Dose–response data were processed with the Graphpad Prism software, version 6, using the sigmoidal dose–response (variable slope) nonlinear curve fitting function.

L. braziliensis = assay: as above; assay type: cell-based, Leishmania braziliensis (MHOM/BR/1975/M2903); conditions: for EC50: Leishmania braziliensis
Procedure: as §1, §2, §3

L. donovani [1] = assay: as above; assay type: cell-based, Leishmania donovani (MHOM/IN/1980/DD8)
Procedure: as §1, §2, §3

[2] = test system: L. amazonensis, L. braziliensis, and L. donovani; assay: Leishmania multi-species high content assay, result stated across the species panel; assay type: cell-based; conditions: for normalized activity against two species: two of the three species; for pan-leishmanial activity (efficacy): against all three species; for Emax: read-out: maximum efficacy
Procedure: as §1, §2, §3

Leishmania = test system: Leishmania; design: method as in PMID 27215734; conditions: cited from earlier work
visceral leishmaniasis = test system: visceral leishmaniasis; design: method as in earlier work; conditions: phase II clinical trial; cited from earlier work
[3] = test system: amastigote forms of L. aethiopica; design: method as in PMID 11801222; conditions: cited from earlier work
L. donovani [4] = test system: L. donovani; design: method as in PMID 21739037; conditions: in vitro; cited from earlier work
[5] = THP-1, confirmatory dose-response, mean of two independent experiments, pEC50 = -log EC50 (M), read-out: pEC50 M L. a (converted)
[6] = THP-1, confirmatory dose-response, mean of two independent experiments, pEC50 = -log EC50 (M), read-out: pEC50 M L. b (converted)
[7] = THP-1, confirmatory dose-response, mean of two independent experiments, pEC50 = -log EC50 (M), read-out: pEC50 M L. d (converted)
[8] = confirmatory dose-response, mean of two independent experiments, pEC50 = -log EC50 (M)
[9] = THP-1, read-out: pEC50 M L. d (converted)
[10] = THP-1, library screening plates, mean ± standard deviation from eight assay plates, read-out: EC50 Amphotericin B
[11] = reference compound concentration-effect curves (Figure 2B), 96 h exposure, infected THP-1, read-out: EC50
[12] = dose-response of reference drugs, span over the three species

Compound `CN1CCN(C2Cc3ccccc3Sc3ccc(Cl)cc32)CC1` (centres unmarked) [Clorotepine] has an EC50 (L. amazonensis; [5]) of 4.57e-05 M, an EC50 (L. braziliensis; [6]) of 2.88e-05 M and an EC50 (L. donovani [1]; [7]) of 4.37e-05 M.

Compound `CN1CCN(CCCN2c3ccccc3Sc3ccc(C(F)(F)F)cc32)CC1` [Trifluoperazine] has an EC50 (L. donovani [1]; [7]) of 3.8e-05 M.

In the case of `CN(C)CC/C=C1/c2ccccc2Sc2cc(Cl)ccc21.Cl` [EU-0100170], the “normalized activity against two species” value [2] is reported as greater than 90%.

With `CCN(CC)C(C)CN1c2ccccc2Sc2ccccc21` (centres unmarked) [Ethopropazine] the EC50 (L. amazonensis; [5]) was 4.57e-05 M, the EC50 (L. braziliensis; [6]) was 3.72e-05 M and the EC50 (L. donovani [1]; [7]) was 3.16e-05 M.

Work on `COc1ccccc1OCCNCC(O)COc1cccc2[nH]c3ccccc3c12` (centres unmarked) [Carvedilol] yielded an EC50 (L. amazonensis; [5]) of 3.55e-05 M, an EC50 (L. braziliensis; THP-1, confirmatory dose-response screen, values in text, read-out: EC50) of 1.62e-05 M and an EC50 (L. braziliensis; [6]) of 1.62e-05 M.

`CNCCC=C1c2ccccc2CCc2ccccc21` [Nortriptyline] showed an EC50 (L. amazonensis; [5]) of 2.95e-05 M and an EC50 (L. braziliensis; [6]) of 3.63e-05 M.

For `C[C@]1(COc2ccc(N3CCC(Oc4ccc(OC(F)(F)F)cc4)CC3)cc2)Cn2cc([N+](=O)[O-])nc2O1` [Delamanid], the “efficacy against Leishmania” value (Leishmania) is given as “effective”.

Work on `c1cc(CN2CCCCC2)cc(OCCCNc2nc3ccccc3s2)c1` [SKF 95282] yielded an EC50 (L. amazonensis; [5]) of 4.27e-05 M, an EC50 (L. braziliensis; [6]) of 2.63e-05 M and an EC50 (L. donovani [1]; [7]) of 4.9e-05 M.

With `CNCCCN1c2ccccc2CCc2ccccc21` [Desipramine] the EC50 (L. amazonensis; [5]) was 2.75e-05 M and the EC50 (L. braziliensis; [6]) was 3.24e-05 M.

In the case of `N=C(CC(=O)O)C(=O)O` [Iminoaspartate], the “pEC50 M L. a” value (L. amazonensis; [8]) is reported as 4.42 and the “pEC50 M L. b” value (L. braziliensis; [8]) is reported as 4.52.

With `CNCCCC12CCC(c3ccccc31)c1ccccc12` [Maprotiline] the “pan-leishmanial activity (efficacy)” value [2] was “greater than 70%”.

`Fc1ccc([C@@H]2CCNC[C@H]2COc2ccc3c(c2)OCO3)cc1` [Paroxetine] showed an EC50 (L. donovani [1]; [7]) of 3.16e-05 M.

`CCC(=O)c1ccc2c(c1)N(CCCN(C)C)c1ccccc1S2` [Propionylpromazine] showed an EC50 (L. amazonensis; [5]) of 3.47e-05 M and an EC50 (L. braziliensis; [6]) of 3.09e-05 M.

For `Cl.O=S(=O)(c1cccc2c(Cl)cccc12)N1CCCNCC1` [ML-9], the “pan-leishmanial activity (efficacy)” value [2] was “greater than 70%”.

`OCCN1CCN(CCC=C2c3ccccc3Sc3ccc(C(F)(F)F)cc32)CC1` [Flupenthixol] showed an EC50 (L. donovani [1]; [7]) of 3.47e-05 M.

With `NC(=O)c1cc(N2CC2)c([N+](=O)[O-])cc1[N+](=O)[O-]` [CB 1954] the EC50 (L. amazonensis; THP-1) was 3.1e-05 M, the EC50 (L. amazonensis; THP-1, read-out: pEC50 M L. a (converted)) was 3.09e-05 M and the EC50 (L. braziliensis; THP-1) was 1.6e-06 M. The EC50 (L. braziliensis; THP-1, read-out: pEC50 M L. b (converted)) was 2.19e-06 M, the EC50 (L. donovani [1]; THP-1) was 3.7e-06 M and the EC50 (L. donovani [1]; [9]) was 3.72e-06 M. For the same compound, the “pan-leishmanial activity (efficacy)” value [2] was “greater than 70%”.

For `CSc1ccc(OCc2ncc([N+](=O)[O-])n2C)cc1` [fexinidazole], the efficacy in patients (visceral leishmaniasis) is listed as “failed to demonstrate efficacy”.

`CNCCCC1c2ccccc2C=Cc2ccccc21` [Protriptyline] gave an EC50 (L. amazonensis; [5]) of 3.89e-05 M, an EC50 (L. braziliensis; [6]) of 3.72e-05 M and an EC50 (L. donovani [1]; [7]) of 2.95e-05 M. The “pan-leishmanial activity (efficacy)” value [2] was “greater than 70%”.

For `CN(C)CCCN1c2ccccc2Sc2ccccc21` [Promazine], the EC50 (L. braziliensis; [6]) was 4.57e-05 M.

With `C[C@@H]1[C@H](O)[C@@H](C)/C=C/C=C/C=C/C=C/C=C/C=C/C=C/[C@H](O[C@@H]2O[C@H](C)[C@@H](O)[C@H](N)[C@@H]2O)C[C@@H]2O[C@](O)(C[C@@H](O)C[C@@H](O)[C@H](O)CC[C@@H](O)C[C@@H](O)CC(=O)O[C@H]1C)C[C@H](O)[C@H]2C(=O)O` [amphotericin B] the EC50 (L. amazonensis; [10]) was 2.1e-06 ± 1.6e-07 M, the EC50 (L. amazonensis; [11]) was 1.7e-06 M and the EC50 (L. braziliensis; [10]) was 9.3e-07 ± 4.5e-07 M. For the same compound, the EC50 (L. braziliensis; [11]) was 1.3e-06 M, the EC50 (L. donovani [1]; [10]) was 8.2e-07 ± 7e-08 M and the EC50 (L. donovani [1]; [11]) was 7e-07 M. For the same compound, the EC50 [2, 12] was 0.7 to 2 µM and the Emax [2, 12] was roughly 100%.

`CC[C@]1(O)C[C@@H]2CN(CCc3c([nH]c4ccccc34)[C@@](C(=O)OC)(c3cc4c(cc3OC)N(C)[C@H]3[C@@](O)(C(=O)OC)[C@H](OC(C)=O)[C@]5(CC)C=CCN6CC[C@]43[C@@H]65)C2)C1` [Vinblastine] gave an EC50 (L. amazonensis; [5]) of 2.82e-05 M and an EC50 (L. braziliensis; [6]) of 3.47e-05 M.

In the case of `Cl.O[Si](CCCN1CCCCC1)(c1ccc(F)cc1)C1CCCCC1` (centres unmarked) [pFHHSiD], the “normalized activity against two species” value [2] is reported as greater than 90%.

With `CN(C)CCCN1c2ccccc2CCc2ccc(Cl)cc21` [Clomipramine] the “pan-leishmanial activity (efficacy)” value [2] was “greater than 70%”.

Work on `CCc1cccc(N(C)C(N)=Nc2cccc3ccccc23)c1` [Cerestat] yielded an EC50 (L. amazonensis; [5]) of 2.88e-05 M.

For `CCCCCCCCCCCCCCCCCCOP(=O)([O-])OC1CC[N+](C)(C)CC1` [Perifosine], the EC50 (L. donovani [1]; [7]) was 2.75e-05 M.

In the case of `CC(CN(C)C)CN1c2ccccc2CCc2ccccc21` (centres unmarked) [Trimipramine], the EC50 (L. amazonensis; [5]) is reported as 3.98e-05 M, the EC50 (L. braziliensis; [6]) is reported as 2.82e-05 M and the EC50 (L. donovani [1]; [7]) is reported as 4.07e-05 M.

Work on `OCCN1CCN(CCCN2c3ccccc3Sc3ccc(Cl)cc32)CC1` [Perphenazine] yielded an EC50 (L. donovani [1]; [7]) of 2.75e-05 M.

For Bromocryptine, the “pEC50 M L. a” value (L. amazonensis; [8]) was 4.43 and the “pEC50 M L. b” value (L. braziliensis; [8]) was 4.41.

Work on `CCCCCCCCCCCCCCCCOP(=O)([O-])OCC[N+](C)(C)C` [miltefosine] yielded an EC50 (L. amazonensis; THP-1, variation across ten independent experiments, read-out: EC50) of 9.7e-07 to 1.4e-05 M, an EC50 (L. amazonensis; [11]) of 2.3e-06 M and an EC50 (L. braziliensis; [11]) of 1.6e-06 M. For the same compound, the EC50 (L. donovani [1]; [11]) was 6e-07 M, the “potency variation between species” value ([2]; EC50 compared between the three species) was “up to 4 fold” and the Emax [2, 12] was 78 to 100%. For the same compound, the “sensitivity to miltefosine, L. aethiopica relative to L. major” value [3] was 14 fold and the “potency against L. donovani relative to L. amazonensis, L. braziliensis, L. guyanensis, and L. chagasi” value (L. donovani [4]) was “approximately 20 times”.

For `CN(C)CCCN1c2ccccc2Sc2ccc(C(F)(F)F)cc21` [Triflupromazine], the EC50 (L. donovani [1]; [7]) was 2.82e-05 M.

With `CC(CN1c2ccccc2Sc2ccccc21)N(C)C` (centres unmarked) [Promethazine] the EC50 (L. amazonensis; [5]) was 3.98e-05 M and the EC50 (L. braziliensis; [6]) was 3.98e-05 M.

`CN1C[C@H](CNC(=O)OCc2ccccc2)C[C@@H]2c3cccc4c3c(cn4C)C[C@H]21` [Metergoline] gave an EC50 (L. donovani [1]; [7]) of 3.24e-05 M.

In the case of `CNC1CC(c2ccc(Cl)c(Cl)c2)c2ccccc21` (centres unmarked) [Indatraline], the EC50 (L. donovani [1]; THP-1) is reported as 1.81e-05 M and the EC50 (L. donovani [1]; [9]) is reported as 1.82e-05 M.
